From ChEMBL document CHEMBL3879914, “Inhibitors of central nervous system vasoactive inhibitory peptide receptor 2” (2014) come the findings set out here.

SMILES strings stand for the structures.

The target in experiment [1] is T1, Vasoactive intestinal polypeptide receptor 2 (Homo sapiens) (UniProt P41587).
T1 sequence (whole entry): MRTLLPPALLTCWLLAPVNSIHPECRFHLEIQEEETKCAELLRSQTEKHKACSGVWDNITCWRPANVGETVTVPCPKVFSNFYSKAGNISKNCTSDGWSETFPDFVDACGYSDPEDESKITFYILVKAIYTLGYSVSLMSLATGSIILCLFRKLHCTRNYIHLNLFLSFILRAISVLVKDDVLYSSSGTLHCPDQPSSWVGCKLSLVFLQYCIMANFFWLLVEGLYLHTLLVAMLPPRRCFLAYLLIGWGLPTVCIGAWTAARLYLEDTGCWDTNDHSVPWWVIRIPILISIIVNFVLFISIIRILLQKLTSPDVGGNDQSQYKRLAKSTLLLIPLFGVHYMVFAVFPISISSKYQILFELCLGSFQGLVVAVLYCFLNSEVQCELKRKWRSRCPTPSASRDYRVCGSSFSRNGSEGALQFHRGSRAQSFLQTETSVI
Kind of experiment: Antagonist activity at recombinant human N-terminal signal peptide/FLAG epitope-tagged VIPR2 expressed in HEK293 cells co-expressing CAMYEL assessed as inhibition of VIP-induced cAMP accumulation at 0.5 uM preincubated for 5 mins with luciferin, coelenterazine H followed by VIP addition measured after 5 mins by BRET assay relative to control. Format: functional, cell-based.

The target in experiment [2] is T1, Vasoactive intestinal polypeptide receptor 2 (Homo sapiens). Kind of experiment: Antagonist activity at recombinant human N-terminal signal peptide/FLAG epitope-tagged VIPR2 expressed in HEK293 cells co-expressing CAMYEL assessed as inhibition of VIP-induced cAMP accumulation at 5 uM preincubated for 5 mins with luciferin, coelenterazine H followed by VIP addition measured after 5 mins by BRET assay relative to control. Format: functional, cell-based. For orientation: Cyclic AMP is a second messenger, typically raised through Gs and lowered through Gi signalling.

The target is the same in experiment [3]. Kind of experiment: Antagonist activity at recombinant human N-terminal signal peptide/FLAG epitope-tagged VIPR2 expressed in HEK293 cells co-expressing CAMYEL assessed as inhibition of VIP-induced cAMP accumulation at 1 uM preincubated for 5 mins with luciferin, coelenterazine H followed by VIP addition measured after 5 mins by BRET assay relative to control. In kind it is functional, cell-based.

Experiment [4] has the same target. Kind of experiment: Antagonist activity at recombinant human N-terminal signal peptide/FLAG epitope-tagged Rluc8-fused VIPR2 expressed in HEK293 cells assessed as inhibition of VIP-induced human mVenus-beta-arrestin2 binding at 5 uM preincubated for 5 mins with luciferin, coelenterazine H followed by VIP addition measured after 5 mins by BRET assay relative to control. Format: cell-based. In general terms: Bioluminescence resonance energy transfer reports proximity on the nanometre scale.

Experiment [5] shares this target. Kind of experiment: Antagonist activity at recombinant human N-terminal signal peptide/FLAG epitope-tagged Rluc8-fused VIPR2 expressed in HEK293 cells assessed as inhibition of VIP-induced human mVenus-beta-arrestin2 binding at 1 uM preincubated for 5 mins with luciferin, coelenterazine H followed by VIP addition measured after 5 mins by BRET assay relative to control. Format: cell-based.

Experiment [6] has the same target. In words: Antagonist activity at recombinant human N-terminal signal peptide/FLAG epitope-tagged Rluc8-fused VIPR2 expressed in HEK293 cells assessed as inhibition of VIP-induced human mVenus-beta-arrestin2 binding at 0.5 uM preincubated for 5 mins with luciferin, coelenterazine H followed by VIP addition measured after 5 mins by BRET assay relative to control. Format: cell-based.

In the case of `O=C(NC[C@@H](O)C[C@@H](Cc1ccccc1)C(=O)N[C@H]1c2ccccc2C[C@H]1O)c1cccc(Br)c1`, the inhibition (in general, the change of the read-out against control, counted positive when it falls) in experiment [1] was 17.4%; in experiment [2], 20.3%; in experiment [3], 18.5%; in experiment [4], 5.2%; in experiment [5], 6.8%; in experiment [6], -3.8 to 12.8%.
Turning to `O=C(NC[C@@H](O)C[C@@H](Cc1ccccc1)C(=O)N[C@H]1c2ccccc2C[C@H]1O)c1ccccn1`, the inhibition was 14.9% in experiment [1]; 20.3% in experiment [2]; 17.7% in experiment [3]; 5.5% in experiment [4]; 32.7% in experiment [5]; 6.1 to 12.9% in experiment [6].
For `O=C(NC[C@@H](O)C[C@@H](Cc1ccccc1)C(=O)N[C@H]1c2ccccc2C[C@H]1O)c1cccc([N+](=O)[O-])c1`, the inhibition is 11.8% in experiment [1]; 13.5% in experiment [2]; 11% in experiment [3]; -4% in experiment [4]; 7.4% in experiment [5]; 4.75 to 19.9% in experiment [6].
For the compound `CN(C)c1ccc(S(=O)(=O)NC[C@@H](O)C[C@@H](Cc2ccccc2)C(=O)N[C@H]2c3ccccc3C[C@H]2O)cc1`, the inhibition in experiment [1] was 9.4%; in experiment [2], -3.4%; in experiment [3] it was -1.4%; in experiment [4], 8.7%; in experiment [5], -1.6%; in experiment [6], 2.65 to 4.2%.
As to `O=C(NCc1ccccc1)c1ccc(S(=O)(=O)NC[C@@H](O)C[C@@H](Cc2ccccc2)C(=O)N[C@H]2c3ccccc3C[C@H]2O)cc1`, the inhibition in experiment [1] is 25%; in experiment [2] it was 90.5%; in experiment [3], 32.3%; in experiment [4] it was -7.7%; in experiment [5], -2%; in experiment [6], 4.8 to 41.4%.
For the compound `C[C@H](CC(C)(C)C)NC(=O)[C@@H](Cc1ccccc1)C[C@H](O)CNS(=O)(=O)c1ccc([N+](=O)[O-])cc1`, the inhibition in experiment [1] is 6.5%; in experiment [2], 7.4%; in experiment [3], 19.6%; in experiment [4], 20.2%; in experiment [5], 27.9%; in experiment [6] it was 13.8 to 36.8%.
Take `CC(C)c1cc(C(C)C)c(S(=O)(=O)NC[C@@H](O)C[C@@H](Cc2ccccc2)C(=O)N[C@H]2c3ccccc3C[C@H]2O)c(C(C)C)c1`: the inhibition in experiment [1] is 19.5%; in experiment [2], 90%; in experiment [3], 18.6%; in experiment [4] it was 8.3%; in experiment [5], 30.9%; in experiment [6] it was 29.7 to 49.1%.
With `N#Cc1ccc(S(=O)(=O)NC[C@@H](O)C[C@@H](Cc2ccccc2)C(=O)N[C@H]2c3ccccc3C[C@H]2O)cc1`, the inhibition in experiment [1] was 27.3%; in experiment [2], 93.1%; in experiment [3], 43.6%; in experiment [4] it was 90.4%; in experiment [5], 59.5%; in experiment [6] it was 38.5 to 91.8%.
Regarding `O=C(NC1CCCCCC1)[C@@H](Cc1ccccc1)C[C@H](O)CNS(=O)(=O)c1ccc([N+](=O)[O-])cc1`, the inhibition was 15.5% in experiment [1]; 14.3% in experiment [2]; 10.6% in experiment [3]; 6.8% in experiment [4]; 3.6% in experiment [5]; -4 to 10.6% in experiment [6].
For `O=C(NC1CCCC1)c1ccc(S(=O)(=O)NC[C@@H](O)C[C@@H](Cc2ccccc2)C(=O)N[C@H]2c3ccccc3C[C@H]2O)cc1`, the inhibition in experiment [1] is 15.2%; in experiment [2], 31.8%; in experiment [3], 19.6%; in experiment [4], 0.1%; in experiment [5], 0.5%; in experiment [6] it was 3.9 to 15.9%.
With `C#CCNC(=O)[C@H](Cc1ccccc1)C[C@H](O)CNS(=O)(=O)c1ccc([N+](=O)[O-])cc1`, the inhibition in experiment [1] was 5.4%; in experiment [2], 7.3%; in experiment [3], 7.8%; in experiment [4], -0.2%; in experiment [5], 7.2%; in experiment [6], 3.55 to 9.4%.
For `O=C(Nc1ccc(S(=O)(=O)NC[C@@H](O)C[C@@H](Cc2ccccc2)C(=O)N[C@H]2c3ccccc3C[C@H]2O)cc1)C1CC1`, the inhibition in experiment [1] was -2.4%; in experiment [2] it was 34.3%; in experiment [3], 23%; in experiment [4], -4.2%; in experiment [5], -0.3%; in experiment [6] it was 6.4 to 15.1%.
For the compound `Nc1ccc(S(=O)(=O)NC[C@@H](O)C[C@@H](Cc2ccccc2)C(=O)N[C@H]2c3ccccc3C[C@H]2O)cc1`, the inhibition in experiment [1] is 8.4%; in experiment [2], 33.3%; in experiment [3], 18.6%; in experiment [4] it was 6.7%; in experiment [5], -5.5%; in experiment [6], -5.6 to 20%.
For `CCN(CC)C(=O)c1ccc(S(=O)(=O)NC[C@@H](O)C[C@@H](Cc2ccccc2)C(=O)N[C@H]2c3ccccc3C[C@H]2O)cc1`, the inhibition in experiment [1] was 2.5%; in experiment [2], 31.8%; in experiment [3], 5.9%; in experiment [4], -1.2%; in experiment [5], 3.1%; in experiment [6], 0.3 to 15.3%.
For `O=C(N[C@H]1c2ccccc2C[C@H]1O)[C@H](Cc1ccccc1)C[C@H](O)CNS(=O)(=O)c1ccccc1F`, the inhibition in experiment [1] is 28.6%; in experiment [2], 28.3%; in experiment [3] it was 22.3%; in experiment [4] it was 52%; in experiment [5], 28.3%; in experiment [6], 5.3 to 40.1%.
For `CC(=O)Nc1ccc(S(=O)(=O)NC[C@@H](O)C[C@@H](Cc2ccccc2)C(=O)N[C@H]2c3ccccc3C[C@H]2O)cc1`, the inhibition in experiment [1] is 15.2%; in experiment [2], 19.1%; in experiment [3], 19.1%; in experiment [4], 4.2%; in experiment [5] it was 4.9%; in experiment [6], -1.2 to 11.7%.
On to `CC(=O)Nc1ccc(S(=O)(=O)NC[C@H](C[C@@H](Cc2ccccc2)C(=O)N[C@H]2c3ccccc3C[C@H]2OC(C)=O)OC(C)=O)cc1`, for which the inhibition was -8.7% in experiment [1]; -5.8% in experiment [2]; -8.7% in experiment [3]; 9.7% in experiment [4]; 0.2% in experiment [5]; 0.5 to 1.95% in experiment [6].
`C#CCCCC(=O)NC[C@@H](O)C[C@@H](Cc1ccccc1)C(=O)N[C@H]1c2ccccc2C[C@H]1O`: the inhibition in experiment [1] is 20.8%; in experiment [2] it was 26.6%; in experiment [3] it was 20.2%; in experiment [4] it was 25.8%; in experiment [5], 16.1%; in experiment [6] it was 26.2 to 45.8%.
For the compound `CS(=O)(=O)NC[C@@H](O)C[C@@H](Cc1ccccc1)C(=O)N[C@H]1c2ccccc2C[C@H]1O`, the inhibition in experiment [1] is 21.4%; in experiment [2], 18.5%; in experiment [3], 21.9%; in experiment [4], 23.4%; in experiment [5], 31.6%; in experiment [6], 17.3 to 20.9%.
For the compound `CC(C)c1ccc(S(=O)(=O)NC[C@@H](O)C[C@@H](Cc2ccccc2)C(=O)N[C@H]2c3ccccc3C[C@H]2O)cc1`, the inhibition in experiment [1] was 36.5%; in experiment [2], 98.2%; in experiment [3], 44.2%; in experiment [4], 87.7%; in experiment [5] it was 63.1%; in experiment [6], 31.5 to 93%.
Regarding `CC(C)CS(=O)(=O)NC[C@@H](O)C[C@@H](Cc1ccccc1)C(=O)N[C@H]1c2ccccc2C[C@H]1O`, the inhibition in experiment [1] was 13.3%; in experiment [2] it was 22.2%; in experiment [3], 15.6%; in experiment [4] it was 20%; in experiment [5], 3.2%; in experiment [6], 7.1 to 21.1%.
With `O=C(NC[C@@H](O)C[C@@H](Cc1ccccc1)C(=O)N[C@H]1c2ccccc2C[C@H]1O)c1ccco1`, the inhibition in experiment [1] is 20.8%; in experiment [2], 19.1%; in experiment [3], 22.5%; in experiment [4], 33.3%; in experiment [5], 27.7%; in experiment [6], 26.2 to 30.3%.
Turning to `CC(C)(C)c1ccc(S(=O)(=O)NC[C@@H](O)C[C@@H](Cc2ccccc2)C(=O)N[C@H]2c3ccccc3C[C@H]2O)cc1`, the inhibition came out at 9.7% in experiment [1]; 72.1% in experiment [2]; 13% in experiment [3]; 56.7% in experiment [4]; 18.1% in experiment [5]; 0% in experiment [6].
